Laboratory results taken from PubChem BioAssay (NCI).
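Exposure lasted 48 hours, with cells grown in 96-well plates and compounds tested at five concentrations. TGI is the concentration that stops growth completely.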

What was measured:
Assay in all cases: NCI tumour cell line growth inhibition, 48 h
[1] = test system: HT29 colon
[2] = test system: EKVX NSCLC
[3] = test system: HCT-15 colon
[4] = test system: SK-MEL-28 melanoma
[5] = test system: NCI-H522 lung
[6] = test system: RPMI-8226 leukemia
[7] = test system: SR leukemia
[8] = test system: SW-620 colon
[9] = test system: SF-268 CNS
[10] = test system: SF-295 CNS
[11] = test system: RXF 393 renal
[12] = test system: OVCAR-8 ovarian
[13] = test system: T-47D breast
[14] = test system: MDA-MB-435
[15] = test system: DU-145 prostate
[16] = test system: HOP-92 NSCLC
[17] = test system: BT-549 breast

SMILES | TGI [1] | TGI [2] | TGI [3] | TGI [4] | TGI [5] | TGI [6] | TGI [7] | TGI [8] | TGI [9] | TGI [10] | TGI [11] | TGI [12] | TGI [13] | TGI [14] | TGI [15] | TGI [16] | TGI [17]
Cn1c(/C=C(\O)c2ccc(Cl)cc2)nc2ccccc21 | > 100 µM | 84.8 µM | > 100 µM | > 100 µM | > 100 µM | > 100 µM | > 100 µM | > 100 µM | > 100 µM | > 100 µM | > 100 µM | > 100 µM | – | – | – | – | –
COC(=O)[C@@H]1CN(C(=O)CCc2ccccc2)C(=O)N1C(=O)OCc1ccccc1 | > 100 µM | > 100 µM | > 100 µM | > 100 µM | > 100 µM | > 100 µM | > 100 µM | > 100 µM | > 100 µM | > 100 µM | > 100 µM | > 100 µM | > 100 µM | > 100 µM | > 100 µM | > 100 µM | –
CC12NN=NC1C(=O)NC2=O (stereo unspecified) | > 100 µM | > 100 µM | > 100 µM | > 100 µM | > 100 µM | > 100 µM | > 100 µM | > 100 µM | > 100 µM | > 100 µM | – | > 100 µM | – | – | – | > 100 µM | –
COc1ccccc1NC(=O)/C(Cc1nc2ccc([N+](=O)[O-])cc2[nH]c1=O)=N\NC(=O)C[N+](C)(C)C | > 100 µM | > 100 µM | > 100 µM | > 100 µM | > 100 µM | – | 6.47 µM | > 100 µM | > 100 µM | > 100 µM | > 100 µM | > 100 µM | – | > 100 µM | > 100 µM | > 100 µM | > 100 µM
Cc1cc(N(CCC#N)CCC#N)ccc1/C=C/C(=O)Nc1cccc(Cl)c1 | > 100 µM | > 100 µM | > 100 µM | > 100 µM | > 100 µM | > 100 µM | – | > 100 µM | > 100 µM | > 100 µM | – | > 100 µM | – | – | – | > 100 µM | –
O=C1OC(CCCl)(c2ccccc2)CC1CN1CCOCC1 (stereo unspecified) | 46 µM | 40.5 µM | 55.5 µM | 36.9 µM | 33.5 µM | 27.9 µM | – | 39.2 µM | > 100 µM | > 100 µM | 30.9 µM | 38.5 µM | – | – | – | 31.6 µM | –
CCOC(=O)c1nc2ccc([N+](=O)[O-])cc2c2c1CCO2 | > 100 µM | > 100 µM | > 100 µM | > 100 µM | > 100 µM | – | – | > 100 µM | > 100 µM | > 100 µM | > 100 µM | > 100 µM | – | – | – | – | –
COc1ccc(N2C(=O)C3c4[nH]c5ccc(C)cc5c4C4CCC(C)CC4C3C2=O)cc1 (stereo unspecified) | > 100 µM | > 100 µM | > 100 µM | – | > 100 µM | > 100 µM | > 100 µM | > 100 µM | > 100 µM | > 100 µM | 58.6 µM | > 100 µM | – | > 100 µM | > 100 µM | > 100 µM | > 100 µM
CCOC1(COP(=O)(OCc2ccccc2)OCc2ccccc2)COC(COP(=O)(OCc2ccccc2)OCc2ccccc2)(OCC)CO1 (stereo unspecified) | > 100 µM | 9.43 µM | > 100 µM | > 100 µM | > 100 µM | > 100 µM | > 100 µM | > 100 µM | > 100 µM | > 100 µM | > 100 µM | > 100 µM | – | – | – | > 100 µM | –
CCOc1ccc2nc(NC(=O)c3c/c(=N\NC(=O)C[N+](C)(C)C)c4ccc(O)cc4o3)sc2c1 | 13 µM | 11.9 µM | 20 µM | 13 µM | 4.14 µM | 8.31 µM | 17.3 µM | 5.28 µM | 11.6 µM | 11.1 µM | 14.4 µM | 7.76 µM | – | – | – | 6.99 µM | –
CNC(=O)N1CN(c2ccccc2)C2(CCN(CCCC(=O)c3ccc(F)cc3)CC2)C1=O | 26.9 µM | 52.5 µM | 33.6 µM | 38.4 µM | 56.6 µM | 34 µM | 69.7 µM | > 100 µM | > 100 µM | 31 µM | 54.6 µM | > 100 µM | 33.8 µM | – | > 100 µM | – | –
CSCC1CC(c2ccc(Cl)cc2)=NO1 (stereo unspecified) | > 100 µM | > 100 µM | > 100 µM | > 100 µM | > 100 µM | > 100 µM | > 100 µM | > 100 µM | > 100 µM | > 100 µM | – | > 100 µM | – | – | – | > 100 µM | –
O=[N+]([O-])/C=C1\COCc2cc3c(cc21)OCO3 | 67.2 µM | 74.7 µM | 36.2 µM | 34.2 µM | 40.2 µM | 68.5 µM | 61.4 µM | 47.4 µM | 67 µM | > 100 µM | 38.9 µM | 84.4 µM | 46 µM | 28.2 µM | 37.4 µM | > 100 µM | –
CC1=NN(c2ccccc2)C(=O)/C1=C/c1ccc(O)cc1 | > 100 µM | > 100 µM | > 100 µM | > 100 µM | – | > 100 µM | > 100 µM | > 100 µM | > 100 µM | > 100 µM | > 100 µM | > 100 µM | > 100 µM | > 100 µM | > 100 µM | > 100 µM | –
COc1ccc(NC(=O)C/C(C)=N\N=C(N)N)c([N+](=O)[O-])c1 | > 100 µM | > 100 µM | > 100 µM | > 100 µM | > 100 µM | > 100 µM | 48.8 µM | – | > 100 µM | > 100 µM | > 100 µM | > 100 µM | – | – | – | > 100 µM | –
O=C(c1ccccc1)c1ccc(COc2ccc(C(c3c(O)c4ccccc4oc3=O)c3c(O)c4ccccc4oc3=O)cc2)cc1 | 34.9 µM | 40 µM | > 100 µM | 47.4 µM | 38.1 µM | 38.4 µM | 63.9 µM | 80.4 µM | > 100 µM | 44.1 µM | 44.5 µM | 37.2 µM | 57.6 µM | 46.8 µM | > 100 µM | – | –
O=c1cc(-c2ccccc2)[nH]c2cc(O)ccc12 | 46.1 µM | > 100 µM | 30.6 µM | > 100 µM | 76.2 µM | 37.6 µM | 62.9 µM | 31.3 µM | > 100 µM | > 100 µM | 37.5 µM | > 100 µM | – | – | – | 70.3 µM | –
